Experimental data as given in the supplement of paper PMC10307832.

Tests used:
Experiment in all cases: relative viability (nuclei count vs DMSO), 5 days (fraction); higher = more cells survive
Carboplatin + Pictilisib = compound: C1CC(C1)(C(=O)O)C(=O)O.[NH2-].[NH2-].[Pt+2] [Carboplatin] + CS(=O)(=O)N1CCN(Cc2cc3nc(-c4cccc5[nH]ncc45)nc(N4CCOCC4)c3s2)CC1 [Pictilisib] (partner 1 µM)
How it was run: (§1)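 Dosing by pin tool came one day after lung cancer cell lines were seeded in 1536-well plates, using either one drug or a fixed anchor-drug dose plus five library-drug doses (not always all listed) in √10 steps. After 5 days, nuclei were counted on 4× images. Relative viability is treated-well nuclei count divided by vehicle-well nuclei count, and values are medians of duplicate plates.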

GSK126 + Phenformin = compound: CC[C@H](C)N1C=C(C2=C(C=C(C=C21)C3=CN=C(C=C3)N4CCNCC4)C(=O)NCC5=C(C=C(NC5=O)C)C)C [GSK126] + N=C(N)NC(=N)NCCc1ccccc1 [Phenformin] (partner 250 µM)
How it was run: as §1

GSK126 + Olaparib = compound: CC[C@H](C)N1C=C(C2=C(C=C(C=C21)C3=CN=C(C=C3)N4CCNCC4)C(=O)NCC5=C(C=C(NC5=O)C)C)C [GSK126] + O=C(c1cc(Cc2n[nH]c(=O)c3ccccc23)ccc1F)N1CCN(C(=O)C2CC2)CC1 [Olaparib] (partner 8 µM)
How it was run: as §1

MLN4924 + Crizotinib = compound: NS(=O)(=O)OC[C@@H]1C[C@@H](n2ccc3c(N[C@H]4CCc5ccccc54)ncnc32)C[C@@H]1O [MLN4924] + C[C@@H](Oc1cc(-c2cnn(C3CCNCC3)c2)cnc1N)c1c(Cl)ccc(F)c1Cl [Crizotinib] (partner 1 µM)
How it was run: as §1

Row | Cell Line | relative viability (Carboplatin + Pictilisib; first compound 0.08 µM) | relative viability (Carboplatin + Pictilisib; first compound 0.253 µM) | relative viability (Carboplatin + Pictilisib; first compound 0.8 µM) | relative viability (Carboplatin + Pictilisib; first compound 2.53 µM) | relative viability (Carboplatin + Pictilisib; first compound 8 µM) | relative viability (GSK126 + Phenformin; first compound 0.08 µM) | relative viability (GSK126 + Phenformin; first compound 0.253 µM) | relative viability (GSK126 + Phenformin; first compound 0.8 µM) | relative viability (GSK126 + Phenformin; first compound 2.53 µM) | relative viability (GSK126 + Phenformin; first compound 8 µM) | relative viability (GSK126 + Olaparib; first compound 0.08 µM) | relative viability (GSK126 + Olaparib; first compound 0.253 µM) | relative viability (GSK126 + Olaparib; first compound 0.8 µM) | relative viability (GSK126 + Olaparib; first compound 2.53 µM) | relative viability (GSK126 + Olaparib; first compound 8 µM) | relative viability (MLN4924 + Crizotinib; first compound 0.04 µM) | relative viability (MLN4924 + Crizotinib; first compound 0.1265 µM) | relative viability (MLN4924 + Crizotinib; first compound 0.4 µM) | relative viability (MLN4924 + Crizotinib; first compound 1.265 µM) | relative viability (MLN4924 + Crizotinib; first compound 4 µM)
1 | NCI-H2126 | 0.47 | 0.516 | 0.518 | 0.511 | 0.452 | 0.512 | 0.534 | 0.554 | 0.535 | 0.507 | 0.963 | 0.957 | 0.884 | 0.916 | 0.915 | 0.912 | 0.911 | 0.789 | 0.397 | 0.256
2 | NCI-H2170 | 0.361 | 0.266 | 0.357 | 0.33 | 0.283 | 0.386 | 0.427 | 0.393 | 0.391 | 0.376 | 0.603 | 0.669 | 0.559 | 0.54 | 0.529 | 1.2 | 0.599 | 0.507 | 0.16 | 0.185
3 | NCI-H2228 | 0.547 | 0.385 | 0.446 | 0.326 | 0.312 | 0.43 | 0.295 | 0.376 | 0.337 | 0.365 | 0.649 | 0.75 | 0.511 | 0.669 | 0.691 | – | 0.443 | 0.4 | 0.192 | 0.226
4 | NCI-H2347 | 0.65 | 0.516 | 0.623 | 0.708 | 0.74 | 0.488 | 0.444 | 0.499 | 0.352 | 0.409 | 0.562 | 0.524 | 0.529 | 0.581 | 0.62 | 0.525 | 0.53 | 0.484 | 0.42 | 0.412
5 | NCI-H2405 | 0.588 | 0.405 | 0.472 | 0.45 | 0.428 | 0.394 | 0.384 | 0.365 | 0.328 | 0.304 | 0.887 | 0.84 | 0.844 | 0.89 | 0.744 | 0.797 | 0.667 | 0.478 | 0.266 | 0.242
6 | NCI-H3122 | 0.62 | 0.659 | 0.549 | 0.593 | 0.563 | 0.405 | 0.367 | 0.364 | 0.351 | 0.319 | 0.713 | 0.712 | 0.628 | 0.654 | 0.628 | 0.369 | 0.338 | 0.358 | 0.178 | 0.153
7 | PC-3 [JPC-3] | 0.912 | 0.684 | 0.761 | 0.701 | 0.706 | 0.478 | 0.489 | 0.48 | 0.456 | 0.489 | 1.1 | 1.14 | 1.09 | 1.15 | 1.12 | 0.986 | 0.909 | 0.477 | 0.34 | 0.293
8 | PC-14 | 0.815 | 0.744 | 0.62 | 0.698 | 0.349 | 0.554 | 0.611 | 0.667 | 0.651 | 0.565 | 0.348 | 0.295 | 0.335 | 0.354 | 0.396 | 0.872 | 0.888 | 0.591 | 0.161 | 0.109
9 | RERF-LC-KJ | 0.584 | 0.48 | 0.512 | 0.453 | 0.316 | 0.484 | 0.417 | 0.396 | 0.4 | 0.396 | 0.935 | 0.979 | 1.04 | 0.826 | 0.83 | 0.786 | 0.471 | 0.225 | 0.221 | 0.207
10 | SK-LU-1 | 0.542 | 0.664 | 0.528 | 0.542 | 0.411 | 0.674 | 0.521 | 0.553 | 0.582 | 0.603 | 0.555 | 0.452 | 0.45 | 0.396 | 0.482 | 0.951 | 0.802 | 0.236 | 0.182 | 0.201
11 | SK-MES-1 | 0.402 | 0.272 | 0.358 | 0.328 | 0.303 | 0.743 | 0.673 | 0.635 | 0.526 | 0.535 | 0.798 | 0.787 | 0.721 | 0.724 | 0.657 | 1.02 | 0.842 | 0.702 | 0.228 | 0.22
12 | SW 1573 | 0.408 | 0.603 | 0.492 | 0.555 | 0.399 | 0.41 | 0.4 | 0.376 | 0.439 | 0.423 | 0.609 | 0.542 | 0.582 | 0.621 | 0.49 | 0.802 | 0.734 | 0.748 | 0.0862 | 0.0778
